In one series the test system is patients. The conditions noted are these: cited from earlier work; for disease symptoms in patients: treatment reported in literature.
The next series concerns Parkinson's mouse models. The note with it: Parkinson's mouse models (Patki, 2011); cited from earlier work.
The subject of series [1] is substantia nigra of mouse. The series can be described thus: Immunohistochemistry of mouse brain sections for alpha-synuclein. The series is classed as in vivo. The conditions noted are these: mouse given α-MSH in left nostril, anti-mouse alpha synuclein staining, FIG. 6a. On the procedure:
FIGS. 6A-B are immunohistochemistry microscopy photographs of brain sections stained with anti-mouse alpha synuclein (BD Biosciences, Clone 42/α-Synuclein).
Three mice were given the inducer, α-MSH, which was administered once every other day for one month through an intranasal route through the left nostril (FIG. 5a), and one mouse not subjected to the α-MSH inducer served as a healthy control. Observations and measurements were taken weekly at the end of α-MSH administration. […] The control mouse not subjected to α-MSH maintained normal gait and leg movement. Gait impairment observed in the three mice given the α-MSH, is characteristic of motor symptoms associated with PD and MSA symptoms. Moreover, the time-dependent intensified serverity of gait impairment after α-MSH administration is indicative of disease progression as measured through manisfestation of worsening physical symptoms. A cardinal feature of synucleinopathy pathology is the presence of aggregated intracellular alpha-synuclein, which is the predominant constituent of Lewy bodies and glial cytoplasmic inclusions (GCIs) observed in the affected regions of the brain in PD, MSA and DLB. […] Pathology was absent in the control mouse not subjected to α-MSH (FIG. 6b).

Series [2] has as its system MNT-1 cells. The series can be described thus: Apoptosis by fluorescence-based detection of activated caspases (microscopy, flow cytometry). The class given is cell-based, human. The note with it: FIG. 4B. From the text: (§1) FIGS. 4A-C depict the mechanism of cell death induced by α-MSH and inhibition by ASIP, which blocks cell death. […] Vulnerable cells appear with higher fluorescence intensity for the marker of apoptosis, while untreated cells remain alive and show only background fluorescence (top-left panel). […] FIG. 4C is a bar chart depicting ASIP blocking α-MSH effects and protecting against cell death.
(§2) FIGS. 1-6 show the induction of synucleinopathy in vitro and in vivo upon exposure to α-MSH employing the MNT-1 cell line (a gift from Michael S. Marks, Ph.D.) as an in vitro model of neuromelanin-containing neurons and the mouse administered α-MSH by intranasal route, respectively. […] Additionally, rapamycin induced autophagy was reduced in the prescence of α-MSH (FIG. 1A). Normally an increase in melanin production by MNT-1 is observed in the presence of rapamycin, since rapamycin induces autophagy and autophagy-related genes that promote melanogenesis. Melanin levels serve as a reliable readout of autophagy in MNT-1 (Kalie, 2013). Indeed, a decrease in melanin was observed when autophagy was inhibited in melanocytes (Zhang, 2015).
For orientation: In flow cytometry, cells or beads pass a laser one at a time.

For series [3], the system named is MNT-1 cells. The series can be described thus: Immunofluorescence staining of intracellular α-synuclein in MNT-1 cells. The series is classed as cell-based, human.
Source text: as §2
FIGS. 2C, 3, and 4C show human ASIP inhibiting the effects of α-MSH in cellular models and is an effective therapeutic for preventing and reversing synuclein pathology. ASIP was tested as a therapeutic for synucleinopathy in the in vitro cellular model of neuromelanin-containing neurons modeled by MNT-1 cells. […] Immunofluorescence from the α-MSH and ASIP treated cells display similar quantity of α-synuclein compared to healthy, non-treated cells. […]

The next series relates to mice. The series can be described thus: Induction of synucleinopathy in mice by intranasal α-MSH, gait on rotorod. The note with it: α-MSH intranasal left nostril every other day for one month. The series is classed as in vivo, mouse. From the text:
FIGS. 5A-B depict the in vivo induction of synucleinopathy in mice by α-MSH. FIG. 5A is a drawing showing the administration of α-MSH into the left nostril of the mouse and a timeline showing frequency of administration and behavioral testing performed by rotorod. FIG. 5B is a series of rotorod testing photographs of a mouse chronically administered α-MSH by intranasal route for a period of 1 month to induce synucleinopathy (see FIG. 5a).
Three mice were given the inducer, α-MSH, which was administered once every other day for one month through an intranasal route through the left nostril (FIG. 5a), and one mouse not subjected to the α-MSH inducer served as a healthy control. Observations and measurements were taken weekly at the end of α-MSH administration. […] The control mouse not subjected to α-MSH maintained normal gait and leg movement. Gait impairment observed in the three mice given the α-MSH, is characteristic of motor symptoms associated with PD and MSA symptoms. Moreover, the time-dependent intensified serverity of gait impairment after α-MSH administration is indicative of disease progression as measured through manisfestation of worsening physical symptoms. […]
Three mice were given the inducer, α-MSH, through an intranasal route and one mouse was not subjected to α-MSH. The gait of all four mice was monitored every […] after subjection to one month of α-MSH treatment. […]

Series [4] relates to MNT-1 cells. The series can be described thus: Rapamycin-induced autophagy in MNT-1 cells, melanin content as readout. The series is classed as cell-based, human. The note with it: autophagy induced by rapamycin, exposure to α-MSH, FIG. 1A.
Source text: FIG. 1A is a bar chart depicting α-MSH disabling autophagy in MNT-1 cells when autophagy is induced by rapamycin.
as §2
A human pigmented cell line MNT-1 was utilized as a model for pigmented dopaminergic neurons to assess synuclein pathology following exposure to the inducer, α-MSH. […] Additionally, cell autophagy induced by rapamycin or starvation was disabled (FIGS. 1A and 1B). […] With time, vulnerable cells begin to die and undergo apoptotic cell death as measured by caspase activity (FIG. 4B). α-Synuclein accumulation and aggregation, loss of melanin and cell death by apoptosis are cardinal features observed in synuclein diseases such as PD and MSA.

For series [5], the system named is MNT-1 cells. The series can be described thus: Starvation-induced (nutrient-depleted) autophagy and melanin formation in MNT-1 cells. The class given is cell-based, human. The conditions noted are these: starved MNT-1 cells, α-MSH treated vs untreated, FIG. 1B.
Source text: FIG. 1B is a photograph of cells in wells of a culture plate depicting starvation-induced autophagy in cells is inhibited by α-MSH resulting in inhibition of melanin production.
as §2
A human pigmented cell line MNT-1 was utilized as a model for pigmented dopaminergic neurons to assess synuclein pathology following exposure to the inducer, α-MSH. […] With time, vulnerable cells begin to die and undergo apoptotic cell death as measured by caspase activity (FIG. 4B). α-Synuclein accumulation and aggregation, loss of melanin and cell death by apoptosis are cardinal features observed in synuclein diseases such as PD and MSA.

The test system of series [6] is MNT-1 cells. The series can be described thus: Glucose consumption of cells in culture exposed to α-MSH. The series is classed as cell-based, human. The note with it: α-MSH exposed vs not exposed cells, low nutrient conditions, FIG. 4A.
Series [7] concerns MNT-1 cells. The series can be described thus: Cell viability of α-MSH exposed cells with ASIP. The series is classed as cell-based, human. The conditions noted are these: α-MSH exposed cells with 200 nM ASIP vs without ASIP, FIG. 4C.
Source text: as §1
(§3) FIGS. 2C, 3, and 4C show human ASIP inhibiting the effects of α-MSH in cellular models and is an effective therapeutic for preventing and reversing synuclein pathology. ASIP was tested as a therapeutic for synucleinopathy in the in vitro cellular model of neuromelanin-containing neurons modeled by MNT-1 cells. […] Immunofluorescence from the α-MSH and ASIP treated cells display similar quantity of α-synuclein compared to healthy, non-treated cells. This indicates ASIP inhibits the accumulation and aggregation of intracellular α-synuclein, and additionally has the potential to reverse the accrual of toxic protein aggregates and reverse impairment of autophagy. […] Thus, as a therapeutic ASIP promotes an environment ideal for recovery and is amenable for cell restoration strategies. Based on the in vitro cellular model presented herein, ASIP halts induction and progression of synucleinopathy and reverses the disease.

The subject of series [8] is MNT-1 cells. The series can be described thus: ASIP reversal of α-MSH induced block in autophagy, melanin content. The class given is cell-based, human. The note with it: α-MSH exposed cells treated with ASIP vs not treated, FIG. 3. The method, then: as §3

The values that follow come from patent US20220135968A1, “TREATMENT OF SYNUCLEINOPATHY AND ANIMAL MODELS OF SYNUCLEINOPATHY” (TORREY PINES LAW GROUP, PC, priority 2018, published 2022).

“Also recorded” adds a separate entry of the source.

With “β-Melanocyte Stimulating Hormone [β-MSH]”, the “skin darkening in treated patients” value in the series with patients (patients treated with β-MSH (Cotzias, 1967)) is reported as “darkenening of skin of treated patients”. For the same molecule, the “disease symptoms in patients” value in the series with patients is reported as “worsening of Parkinsonian symptoms”.

Consider `COc1ccc2[nH]cc(CCNC(C)=O)c2c1` [melatonin], for which, in the series with Parkinson's mouse models, the locomotor deficits result is on record as “stalled locomotor deficits”. The “disease symptoms in patients” value in the series with patients is reported as “improved PD symptoms”.

Regarding Pro-Leu-Gly-NH2, the “disease symptoms in patients” value with patients is “improvement in disease symptoms”.

For the molecule “α-Melanocyte Stimulating Hormone [α-MSH]”, in [1], the “alpha-synuclein aggregation in substantia nigra” value is reported as “synuclein pathology was observed in the substantia nigra; also recorded: alpha-synuclein aggregation observed in a neuron located in the left substantia nigra; also recorded: Lewy body-like aggregate of alpha-synuclein in the left substantia nigra”. In the series with MNT-1 cells [2] (4, 7 and 9 days of exposure to α-MSH vs medium alone), the “apoptotic events (flow cytometry, marker of apoptosis)” value was “increasing apoptotic events”. Besides, in the series on MNT-1 cells [2] (α-MSH exposed cells, 6 days), the “cell death by apoptosis (fluorescence microscopy)” value is “die by apoptosis”. Also, in the series on MNT-1 cells [3] (MNT-1 cells exposed to α-MSH vs not exposed, FIG. 2B), the “accumulation and aggregation of intracellular α-synuclein” value was “inducing accumulation and aggregation of α-synuclein; also recorded: increase in intensity of immunofluorescence staining of intracellular α-synuclein”. Further, the “gait / leg impairment” value in the series on mice (four, six and eight weeks after) was “progressive leg impairment; also recorded: impaired/weakened right hind leg, loss of symmetry in gait; also recorded: progressive weakness and deteriorating motor control”; in the series with mice (two weeks after end of treatment), “No apparent leg impairment; also recorded: normal gait; also recorded: No significant gait impairment”. In addition, in the series on MNT-1 cells [4], the “rapamycin-induced cellular autophagy / melanin levels” value is “disabled; also recorded: lower melanin levels; also recorded: reduced”. Moreover, in the series on MNT-1 cells [5], the “starvation-induced autophagy / melanin formation” value is “lack of melanin; also recorded: melanin formation is not observed; also recorded: inhibited autophagy and melanin formation”. Also, the glucose consumption result in the series with MNT-1 cells [6] is “glucose consumption is observed to be faster; also recorded: consume glucose faster than untreated cells”.

B1: Agouti Signaling Protein (protein, UniProt P42127 23-132, looked up)
Agouti-signaling protein: HLPPEEKLRDDRSLRSNSSVNLLDVPSVSIVALNKKSKQIGRKAAEKKRSSKKEASMKKVVRPRTPLSAPCVATRNSCKPPAPACCDPCASCQCRFFRSACSCRVLSLNC
Take B1: the “cell viability (protection against cell death)” value in the series on MNT-1 cells [7] is listed as “protects against cell death; also recorded: viability is higher; also recorded: Cells maintain viability”. Further, in the series on MNT-1 cells [3] (MNT-1 cells exposed to α-MSH and ASIP, FIG. 2C), the “inhibition of α-MSH induced α-synuclein accumulation” value was “halt α-synuclein accumulation and aggregation induced by α-MSH; also recorded: inhibition of α-MSH induced accumulation of α-synuclein; also recorded: decreased levels of α-synuclein measured by immunofluorescence”. Besides, in the series on MNT-1 cells [8], the “melanin content (restoration of cellular autophagy)” value is recorded as “restoring melanin production; also recorded: increase in melanin content; also recorded: restoration of melanin levels”.
